This is an account of results in patent US20040039042A1, “Method of transdermal drug delivery” (priority 2002, published 2004).

Data set [1] in a line: Powdered drug mixed with Ocean® and rubbed into the skin over arthritic joints of patients. It is filed as in vivo, human. The settings on record: for side effects normally encountered when taking the drug: patients unable to continue the drugs because of GI toxicity, transdermal application in Ocean®. The text has this:
The present invention is a method for delivering drugs transdermally, especially insoluble drugs. The powdered form of a drug, such as that contained in the capsules of Vioxx® and Celebrex®, was mixed with Ocean® to form a mixture. The mixture was then rubbed into the skin at the needed location, for example, an arthritic joint, by volunteer subjects suffering from arthritis in different joints. The Vioxx® or Celebrex® suspension in Ocean® then penetrated the outer layer of the skin, traveled through the stratum corneum, dermis, and hypodermis, and entered the target tissue. […] Therefore, the present invention provides a method of delivery for NSAIDs, such as Vioxx® and Celebrex®, that can inhibit COX-2 at the inflammation site, without ever entering the GI tract, relieving the patient of any GI toxicity that may be caused by the drug.
In summary, the method of this patent for drug delivery has been tried by a few patients with severe arthritis. These patients were unable to continue using either Vioxx® or Celebrex® because of the severe GI toxicity those drugs caused. The patients opened the capsules of the drugs, mixed the powdered drug with Ocean®, and applied the solution to the skin of the arthritic area.

For data set [2] the following is noted: cited from earlier work.
Data set [3] is described as follows: Application of Carafate® to root canal wounds or dry sockets in dental patients. It is filed as in vivo, human. Conditions: applied to root canal wounds or dry sockets. An excerpt:
Wounds in the mouth are especially prone to infection because of the dark, moist environment, the availability of energy sources from the food that is eaten, and the large numbers of microbes in the mouth. After a root canal or removal of a tooth, a patient is especially prone to infection since the open wound is an idea location for bacteria to settle, and because such a wound is hard to clean.

On to `CS(=O)(=O)c1ccc(C2=C(c3ccccc3)C(=O)OC2)cc1` [Vioxx®, 4-[4-(methyl-sulfonyl)phenyl]-3-phenyl-2(5H)-furanone], for which the “side effects normally encountered when taking the drug” value in data set [1] is “without the side effects”. For the same molecule, in data set [1] (patients with severe arthritis, powdered drug from capsules mixed with Ocean®, applied to skin of the arthritic area), the relief from arthritis result is “relief from their arthritis”. Further, in data set [1] (suspension in Ocean® rubbed into the skin closest to the affected arthritic joint, volunteer subjects), the “time after application until pain and symptoms are reduced” value is “Within minutes”. In addition, in data set [2] (acetone), the solubility in acetone result is reported as “sparingly soluble”. In data set [2] (ethanol), the solubility in ethanol entry is reported as “very slightly soluble”. Moreover, the “solubility in isopropyl acetate” value in data set [2] (isopropyl acetate) is “slightly soluble”. In addition, the solubility in methanol result in data set [2] (methanol) was “slightly soluble”. Also, the solubility in octanol entry in data set [2] (octanol) was “practically insoluble”. The solubility in water result in data set [2] (water) is reported as “insoluble”.
In the case of `Cc1ccc(-c2cc(C(F)(F)F)nn2-c2ccc(S(N)(=O)=O)cc2)cc1` [Celebrex®, 4-[5-(4-methylphenyl)-3-(triflouromethyl)-1 H-pyrazol-1-yl] benzenesulfonamide], the “side effects normally encountered when taking the drug” value in data set [1] is “without the side effects”. The “solubility in aqueous media” value in data set [2] (aqueous media) was “low solubility”.
For the molecule “α-D-glucopyranoside, β-D-frucofuranosyl-, octakis-(hydrogen sulfate), aluminum complex [Carafate®]”, the “infection of the wound area” value in data set [3] (a number of dental patients) is on record as “inhibits infection”. Besides, in data set [3] (dental patients), the healing process entry is given as “hastens the healing process”; the “pain and swelling in wounds” value was “reduce pain and swelling”.
